Literature values as cited in patent EP4748406A1, “MEDICAL ADHESIVE AGENT AND MEDICAL ADHESIVE SHEET” (Nitto Denko Corporation, priority 2023, dated 2025).

water solubility at 20°C: 9.7 g/100 mL
Compound: C=C(C)C(=O)O [MAA, methacrylic acid]
